Assay results from paper PMC3386930, “Altering APP Proteolysis: Increasing sAPPalpha Production by Targeting Dimerization of the APP Ectodomain” (PLoS ONE, 2012).
Entries after “also recorded” stand apart in the source; their conditions may differ.

Tests used:
eAPP230–624 [1] = molecular target: T1, eAPP230–624 (Homo sapiens, UniProt P05067); assay: Intrinsic tryptophan fluorescence of eAPP230–624; format: binding
T1 construct: made in house
Description: (§1) The excitation spectra of the intrinsic tryptophan fluorescence were recorded using either a Shimadzu RF-530PC (Shimadzu Scientific Instruments) or a Spectramax XPS spectrophotometer (Molecular Devices).
Full emission spectra were measured with the Shimadzu RF-530PC using a 3 ml quartz cuvette, a 5 nm slit width and protein concentrations between 0.2–0.6 µM. […] For these larger dilutions, control titrations with the protein alone were used to generate a scaling matrix where the scale factor was both a function of wavelength and dilution. […] A similar scaling matrix was used to correct for the effect of dilution with DMSO. […] All titrations were performed at 24°C. The oligomers were stored on ice during the experiment.
These concentrations are analogous to concentrations used to create complexes for the small angle x-ray scattering analysis. The incubated material was diluted with PBS so that the final protein concentration was 0.5 µM. The spectra were recorded with the Shimadzu […].
For experiments with the Spectromax XPS plate reader, an excitation wavelength of 295 nm was used. This excitation wavelength was chosen to minimize both the contribution of tyrosine in the protein and the background fluorescence of the 96-well plates (Costar #3915).
For the quenching experiments, the data were analyzed by constructing Stern-Volmer plots, F0/F vs. Q, where Fo is the intensity of the fluorescence at zero concentration, F is the intensity of the fluorescence, and Q is the concentration of the quenching agent. When quenching is through either a static (binding) or dynamic (collisional) mechanism this plot is linear and follows the equation: [drawing 1] (1) where Ksv is the quenching constant. When both processes are present the Stern-Volmer plot is quadratic: [drawing 2] (2) where KD is the equilibrium constant associated with dynamic quenching and Ks is the equilibrium constant associated with static quenching. All parameters were determined using PRISM (GraphPad) and the appropriate non-linear curve fitting routine.
The centroid wavelength (λc) was calculated as: [drawing 3] (3) where I(λi) is the intensity observed for the wavelength (λi). The range of wavelengths was 310–390 nm.

MBP-eAPP230–624 [2] = assay: ADAM10 cleavage of MBP-eAPP230–624 in vitro (sAPPα AlphaLISA); format: biochemical; conditions: 1 uM disulfiram 15 minutes, then ADAM10 60 minutes
Description: Then, ADAM10 was added for 60 minutes. Time points were taken every 20 minutes.

[3] = tested on: B103 rat neuroblastoma cells stably expressing human wild-type APP; assay: sAPPα and sAPPβ production in B103 cells (AlphaLISA); format: cell-based; conditions: 1 µM compound, 24 hours, 100,000 cells per well, vs 0.01% DMSO
Description: (§2) B103 rat neuroblastoma cells and 7W-CHO cells were seeded at 100,000 or 50,000 cells per well in a 96-well plate and allowed to grow for one day. The B103 rat neuroblastoma cells stably expressing human wild-type APP were a kind gift from Dr. Lennart Mucke (J. David Gladstone Institute of Neurological Disease and University of California, San Francisco). The 7W-CHO cells were a kind gift from Dr. Edward Koo (Department of Molecular Pathology, University of California, San Diego). The cell culture medium was then changed and the cells treated with 1 µM disulfiram, 1 µM sulfiram, or 0.01% DMSO (control). After 24 hours, the amount of sAPPα and sAPPβ produced in the medium was quantified using the AL231C and AL232C AlphaLISA kits from Perkin Elmer, respectively, modified using a custom biotinylated APP antibody.
A) Effect of treatment with disulfiram and sulfiram on sAPPα and Aβ production in 7W-CHO cells. […] After 24 hours, the amount of sAPPα and sAPPβ produced in the medium was quantified using the AL231C and AL232C AlphaLISA kit from Perkin Elmer, modified using a custom biotinylated human APP antibody. B) Effect on the ratio of α to β cleavage in 7W-CHO cells, as calculated by dividing the amount of sAPPα to sAPPβ produced by the 50,000 7W-CHO cells during one day under the effect of either disulfiram, sulfiram or a DMSO control. […]

7W-CHO cells = assay: sAPPα and sAPPβ production in 7W-CHO cells (AlphaLISA); format: cell-based; conditions: 1 µM compound, 24 hours, 50,000 cells per well, vs 0.01% DMSO
Description: as §2
A) Effect of treatment with disulfiram and sulfiram on sAPPα and Aβ production in 7W-CHO cells. 7W-CHO cells were seeded at 50,000 cells per well in a 96-well plate and allowed to grow for one day. The cell culture medium was then changed and the cells treated with 1 µM disulfiram, 1 µM sulfiram, or 0.01% DMSO (control). After 24 hours, the amount of sAPPα and sAPPβ produced in the medium was quantified using the AL231C and AL232C AlphaLISA kit from Perkin Elmer, modified using a custom biotinylated human APP antibody. B) Effect on the ratio of α to β cleavage in 7W-CHO cells, as calculated by dividing the amount of sAPPα to sAPPβ produced by the 50,000 7W-CHO cells during one day under the effect of either disulfiram, sulfiram or a DMSO control. C) Effect on the ratio of α to β cleavage in B103 cells. B103 neuroblastoma cells were seeded at 100,000 cells per well in a 96-well plate and allowed to grow for one day. The cell culture medium was then changed and the cells treated with 1 µM disulfiram, 1 µM sulfiram, or 0.01% DMSO (Control). After 24 hours, the amount of sAPPα and sAPPβ produced in the medium was quantified using the same modified AL231C and AL232C AlphaLISA kit from Perkin Elmer. The ratio of α to β cleavage was calculated by dividing the amount of sAPPα to sAPPβ produced by the 100,000 B103 cells during one day under the effect of the disulfiram, sulfiram or DMSO control.

eAPP230–624 [4] = molecular target: T1, eAPP230–624; assay: Difference absorption spectra of eAPP230–624; format: binding; conditions: 1:6 molar ratio, 8.3 µM eAPP230–624, 50 µM compound, PBS plus 2% DMSO
MBP-eAPP230–624 [5] = assay: Small-angle X-ray scattering (SAXS) of MBP-eAPP230–624 complexes; format: binding; conditions: 50 µM compound, 1:12 molar ratio, PBS plus 2% DMSO
Description: as §1
The samples were incubated on ice for 20 minutes and then concentrated to 50 µl with 10-kDa cutoff concentrators (Millipore). […] Samples of the filtrates were used for buffer subtraction.
The samples were then concentrated and purified with a Superdex S200 size-exclusion column with 20 mM Tris pH 7.4, 100 mM sodium chloride and 2 mM EDTA. Samples of the protein buffer from the size-exclusion columns were used for buffer subtraction.
Data collection and processing
Small-angle X-ray scattering data were collected using protein concentrations in the range of 0.5–3 mg/ml and an X-ray wavelength of 1.11 Å at beam line 12.3.1 (Advanced Light Source). Data were integrated with software customized for the beam line and processed with the program PRIMUS [30]. The program GNOM [31] was used to calculate the maximum dimension and the radius of gyration and to estimate the intensity of the scattering at zero angle for higher concentration samples.

T1 sequence (P05067 230-624 isoform P05067-4): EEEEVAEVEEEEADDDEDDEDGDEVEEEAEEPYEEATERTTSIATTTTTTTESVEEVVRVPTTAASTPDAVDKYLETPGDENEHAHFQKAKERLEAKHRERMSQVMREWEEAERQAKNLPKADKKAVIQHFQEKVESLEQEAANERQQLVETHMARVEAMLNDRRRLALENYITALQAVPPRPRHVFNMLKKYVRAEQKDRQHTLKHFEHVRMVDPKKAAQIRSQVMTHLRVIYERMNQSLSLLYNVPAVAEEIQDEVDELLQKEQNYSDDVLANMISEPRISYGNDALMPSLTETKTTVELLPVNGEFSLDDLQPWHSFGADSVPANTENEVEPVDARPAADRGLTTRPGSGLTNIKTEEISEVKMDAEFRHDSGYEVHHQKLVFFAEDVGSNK

CCN(CC)C(=S)SSC(=S)N(CC)CC [Disulfiram]
fluorescence peak wavelength (shifted from 344 nm) (eAPP230–624 [1]; 0.64 µM eAPP230–624, disulfiram 0–130 µM): 357 nm | quenching of intrinsic fluorescence (in words) (eAPP230–624 [1]; 0.64 µM eAPP230–624, disulfiram 0–130 µM, sulfiram 0–320 µM, Shimadzu RF-530PC): significantly quenched the intrinsic fluorescence | Stern-Volmer slope relative to sulfiram (eAPP230–624 [1]; 0.64 µM eAPP230–624, disulfiram vs sulfiram): 1.6 times | relative binding affinity for eAPP230–624 (in words) (eAPP230–624 [1]; inferred from Stern-Volmer slopes, disulfiram vs sulfiram): higher binding affinity for eAPP230–624 than sulfiram | effect on dimerization of the ectodomain fragment (in words) (eAPP230–624 [1]; intrinsic fluorescence, confirmed with SAXS): inhibit dimerization of the ectodomain fragment | accessibility of the α-cleavage site to ADAM10 cleavage (in words) (MBP-eAPP230–624 [2]): increase the accessibility of the α-cleavage site near lysine 612 to ADAM10 cleavage | sAPPα production / α-cleavage of APP (in words) [3]: significantly enhance the production of sAPPα; also recorded: enhance α-cleavage significantly | sAPPα production / α-cleavage of APP (in words) (7W-CHO cells): increase sAPPα production | sAPPα production / α-cleavage of APP (in words) (7W-CHO cells; listed as disulfiram): significantly enhance the production of sAPPα; also recorded: enhance α-cleavage significantly | change in extinction coefficient (eAPP230–624 [4]): significant drop in the extinction coefficient | effect on monomer-dimer equilibrium / dimerization of MBP-eAPP230–624 (in words) (MBP-eAPP230–624 [5]): inhibits dimerization of MBP-eAPP230–624 | effect on monomer-dimer equilibrium / dimerization of MBP-eAPP230–624 (in words) (MBP-eAPP230–624 [5]; listed as disulfiram): significantly affected the monomer-dimer equilibrium of MBP-eAPP230–624 in favor of the monomer; also recorded: mixture of monomer and dimer
